Assay results from ChEMBL document CHEMBL3507680, “University of Dundee, Gates Library screen for HepG2 cell viability”.

test: Human HepG2 cell viability assay in 384 well format; assay type: toxicity, cell-based; parameters: dose 125 nL, time 70.5 hour; cytotoxicity at 70.5 h: concentration not given beside the values; conditions: HepG2 cells, read-out: Inhibition

SMILES	cytotoxicity at 70.5 h [%]
COC(C(=O)NC1CC1)c1ccccc1 (stereo unspecified)	28.7
CCC(CC)C(=O)N1CCN(Cc2nc3ccccc3c(=O)[nH]2)CC1	-14.5
Cn1nc(C(=O)NCc2ccc(F)cc2)c2c1CCS(=O)(=O)C2	-6.3
CCC1=NC(SCC(=O)c2ccccc2)c2cc(CC)sc2N1 (stereo unspecified)	13.5
Cc1c(S(=O)(=O)NC2CC2)cc2c(C)cc(=O)n3c2c1CCC3	0.953
Cc1nnc(SCC(=O)NCc2ccc3c(c2)CCC(=O)N3)s1	2.74
Cn1c(=O)oc2cc(S(=O)(=O)N3CCCCC3)c(Cl)cc21	47.9
Cn1c(=O)oc2ccc(S(=O)(=O)N3CCC(c4ccccc4)C3)cc21 (stereo unspecified)	28.3
O=C(NCc1ccccc1Cl)c1[nH]nc2c1CS(=O)(=O)CC2	-5.21
CCn1ncc(Nc2[nH]cnc3nncc2-3)c1C	-3.49
Cc1nc2[nH]cnc(NCCN3CCOCC3)c-2n1	-1.72
COc1ccc(OC)c(C(C)Nc2ncnc3c2NC(=O)CN3)c1 (stereo unspecified)	-18.2
Cc1noc(C2CCN(C(=O)C3CCCO3)CC2)n1 (stereo unspecified)	-9.25
CCC(C)c1noc(C2CCN(C(=O)Cn3nc(C)cc3C)CC2)n1 (stereo unspecified)	-5.55
CCC(C)c1noc(C2CCN(C(=O)c3ccccn3)CC2)n1 (stereo unspecified)	-3.62
CC(C)Cc1noc(C2CCCN(C(=O)CCc3cnn(C)c3)C2)n1 (stereo unspecified)	-8.4
CNc1ncc2c(n1)CN(CCc1ccc(F)cc1)C2=O	-10.4
CNc1ncc2c(n1)CN(C1CC(C)(C)NC(C)(C)C1)C2=O	-12.6
CC(c1ccc2c(c1)OCO2)N1Cc2nc(N(C)C)ncc2C1=O (stereo unspecified)	-0.989
CCn1cc(N2Cc3nc(N(C)C)ncc3C2=O)cn1	-4.06
Cc1noc(C2CCN(C(=O)c3cccs3)CC2)n1	-9.06
Cc1cc(C)n(CC(=O)N2CCC(c3nc(C(C)C)no3)CC2)n1	-7.07
CC(C)Cc1noc(C2CCCCN2C(=O)CCc2cnn(C)c2)n1 (stereo unspecified)	-7.69
Cc1nn(C)c(C)c1CN(C)CC1(O)CCCN(C)C1 (stereo unspecified)	-19.1

SMILES	cytotoxicity at 70.5 h [%]
Cc1cc(C)n(CCC(=O)N2CCCC(c3nc(C(C)C)no3)C2)n1 (stereo unspecified)	-4.86
CCc1noc(C2CCCCN2C(=O)c2ccc(C)o2)n1 (stereo unspecified)	14
COc1ccc(N2Cc3nc(N)ncc3C2=O)cc1	9.83
CCc1noc(C2CCCCN2C(=O)c2cc(C)n(C)n2)n1 (stereo unspecified)	16.6
Cc1cc(C(=O)N2CCCC(c3nc(C)no3)C2)on1 (stereo unspecified)	-10.6
Cc1nn(C)c2cn(C(C)C(=O)NCc3ccncc3)nc12 (stereo unspecified)	-2.93
Cc1cc(C)n(CCCNc2ncnc3c2NC(=O)CN3)n1	-8.3
CCN1CCCC(O)(CN(C)Cc2ccc(C)o2)C1 (stereo unspecified)	-10.6
CCn1nc(C)c2c1cnn2CC(=O)NC(C)c1cccc(OC)c1 (stereo unspecified)	-15.4
CCn1nc(C)c2c1cnn2CC(=O)N1CCN(C)CC1	-1.92
CCc1cc(OC)c(OC)cc1C(=O)Nc1cccnc1	13
Cc1cccc2c1ccn2CCC(=O)O	3.02
Cc1ccc(CNc2cc3[nH]c(O)nc3cc2C)cc1	-19.5
CCc1noc(C2CCCCN2C(=O)c2cccnc2)n1 (stereo unspecified)	-6.76
Cc1nn(C(C)C)c2cnn(CC(=O)N3CCN(C)CC3)c12	-8.52
Cc1nn(C(C)C)c2cnn(CC(=O)N3CCSCC3)c12	-1.45
CCn1nccc1CN(C)C(=O)Cn1cc2c(n1)c(C)nn2CC	-1.76
Cc1nc2[nH]cnc(Nc3cc(C)n(C)n3)c-2n1	-1.58
CCN1CCCC(O)(CNCc2ccccn2)C1 (stereo unspecified)	-8.08
CCN1CCCC(O)(CNCc2ccncc2)C1 (stereo unspecified)	14.1
CN1CCN(c2nsc(-c3cccnc3)c2C#N)CC1	-4.14
CC(C)n1cc(N2Cc3nc(N4CCOCC4)ncc3C2=O)cn1	15.4
Cn1nc(C(=O)N2CCSCC2)cc1NC(=O)c1ccccc1	-1.31
CCn1nc(C)c(CNC(=O)c2nnc3ccc(Cl)cc3n2)c1C	0.121

SMILES	cytotoxicity at 70.5 h [%]
O=C(NCC1CC1)c1nnc2ccc(Cl)cc2n1	-13.3
O=C1c2cnc(N3CCOCC3)nc2CN1C1CCS(=O)(=O)C1 (stereo unspecified)	5.93
CC1CCN(c2ncc3c(n2)CN(c2ccc(F)cc2)C3=O)CC1	-2.02
O=C1c2cnc(N3CCCC3)nc2CN1C1CCS(=O)(=O)C1 (stereo unspecified)	-2.78
CC(C)CN1Cc2nc(N3CCCC3)ncc2C1=O	19.8
CN1CCN(C(=O)c2cc(NC(=O)c3ccccc3)n(C)n2)CC1	-12.7
CCn1nc(C)c(NC(=O)c2cc(NC(=O)C(C)C)n(C)n2)c1C	-5.54
CC(C)C(=O)Nc1cc(C(=O)NC2CC(C)(C)NC(C)(C)C2)nn1C	14.5
CCn1nccc1CN(C)c1nc(N)nc2c1nc(C)n2C	-3.81
Cc1nn(C)c2cn(C(C)C(=O)NCc3ccc(F)cc3)nc12 (stereo unspecified)	-3.15
Cn1nc(C(=O)N2CCSCC2)cc1NC(=O)c1ccco1	-5.7
Cc1ccc2c(cnn2CCC(=O)NCc2csc(C)n2)c1	-14.7
CC(=O)N[C@@H]1C[C@H](c2ccc(OCCO)cc2)OC2(CCOCC2)C1	7.41
Cc1cc(O)nc(C2CN(CCC(F)(F)F)CCO2)n1 (stereo unspecified)	-7.38
Cc1cccnc1C(=O)N1CCCC(Cc2cncc3ccccc23)C1 (stereo unspecified)	-3.08
Cn1cncc1CN1CCCC1c1cncc(Oc2ccc(F)cc2)n1 (stereo unspecified)	-10.5
Cc1noc(C)c1-c1ccnc(C2CCN(C3CCOCC3)CC2)c1	0.77
C[C@]1(O)CCN(Cc2ncccc2F)C[C@@H]1Oc1ccccc1	-6.62
C[C@]1(O)CN(Cc2ncccc2F)CC[C@@H]1Oc1ccccc1	-7.87
CNc1cc(C2CN(Cc3csc(C)n3)CCO2)nc(C)n1 (stereo unspecified)	9.88
CC1(C(=O)N2CCOCC2)CN(C2CCCCC2)CCO1 (stereo unspecified)	0.715
CCCn1nccc1-c1cc(C2CCN(C(C)=O)CC2)ccn1	-8.34
Cc1nccc(C2CCCCN2Cc2ccc(F)cc2)n1 (stereo unspecified)	10.1
Cc1c[nH]nc1C1CCCN(C(=O)Cn2cccn2)C1 (stereo unspecified)	-5.23

SMILES	cytotoxicity at 70.5 h [%]
Cc1noc(C)c1-c1ccnc(C2CCNCC2)c1	-2.34
c1ccc(O[C@H]2C[C@@H]3CN(Cc4cnccn4)C[C@@H]3C2)cc1	-0.72
Cc1noc(C)c1-c1cccc(C2CCNCC2)n1	7.5
Cc1cnc(C2(C)CCN(Cc3csc(C)n3)CC2)s1	-4.14
Cc1cccc(N2CCOC(C(=O)O)C2)c1 (stereo unspecified)	-6.1
O=C(CC1CCCC1)N1CCC(c2cc3ncccc3c(O)n2)CC1	-9.11
Cc1nnc(Nc2cccc(C3CCCN(Cc4ncc[nH]4)C3)n2)s1 (stereo unspecified)	14
CN(C)c1cc(C2CCCN(S(=O)(=O)c3cn(C)cn3)C2)ccn1 (stereo unspecified)	-4.64
NC(=O)CN1CCCC1c1cncc(Oc2ccc(Cl)cc2)n1 (stereo unspecified)	-4.42
Cc1cc(C)nc(C2CCN(C(=O)CCn3ncc4ccccc43)C2)n1 (stereo unspecified)	2.78
Cn1nccc1-c1cc(C2CCN(S(C)(=O)=O)CC2)ccn1	-7.68
COc1ccccc1Oc1cncc(C2CCCN(C)C2)n1 (stereo unspecified)	-5.97
CN(C)c1cc(C2CCCN(C(=O)Cn3cc(Cl)cn3)C2)ccn1 (stereo unspecified)	-4.03
COCC(=O)N1CCC(c2csc(NC(C)=O)n2)CC1	-8.01
CC(=O)Nc1nc(C2CN(C(=O)C3CCC3)C2)cs1	-7.1
CC1CCC(NCCNC(=O)c2cccs2)CC1 (stereo unspecified)	-7.09
Cc1cc(O)nc(C2CN(CCO)CCO2)n1 (stereo unspecified)	8.3
O=C(c1cc[nH]n1)N1CCCC1c1cc(Nc2ccccn2)n[nH]1 (stereo unspecified)	-11.2
CN(C)[C@@H]1CN(C(=O)c2ccc3ccccc3n2)C[C@H]1O	-7.72
Cc1cccc(Nc2cccc(C3CCCN(Cc4ncc[nH]4)C3)n2)n1 (stereo unspecified)	-8.27
CNc1cc(C2CN(Cc3coc(C)n3)CCO2)nc(C)n1 (stereo unspecified)	-8.75
O=C(CCN1CCc2ccccc21)N1CC(C(=O)N2CCOCC2)C1	-5.25
O=S(=O)(N1CCOCC1)N1CCCC1Cn1cccn1 (stereo unspecified)	-11.1
O=C(c1cncs1)N1CCCC1c1ccn[nH]1 (stereo unspecified)	-3.39

SMILES	cytotoxicity at 70.5 h [%]
Cc1noc(C)c1-c1ccc(C2CCCN2C(=O)c2cccnn2)nc1 (stereo unspecified)	19.1
Cc1ncncc1C(=O)N1CCOC(C)(C(=O)NC2CCCC2)C1 (stereo unspecified)	-1.33
Cc1cccc(CC2CCCN(C(=O)Cc3csc(C)n3)C2)n1 (stereo unspecified)	-10.5
COCC(=O)N1CC(c2ccnc(Nc3ccc(C)cn3)n2)C1	-10.9
Cc1ccc(C2CN(C(=O)c3ccn(C)c(=O)c3)CCO2)nc1 (stereo unspecified)	-7.64
Cc1cc(N2CCC(c3n[nH]c4nccnc34)C2)ncn1 (stereo unspecified)	19.2
Cc1ccc(Nc2nccc(C3CCN(CC(N)=O)C3)n2)nc1 (stereo unspecified)	-8.32
CS(=O)(=O)c1cn[nH]c1C1CCCCN1C(=O)c1cnccn1 (stereo unspecified)	-5.18
Cn1ccc(C(=O)N2CCCC2c2[nH]ncc2C(N)=O)n1 (stereo unspecified)	-4.61
CC(=O)N1CCCC(Cc2cnc(-n3ccnc3)cn2)C1 (stereo unspecified)	-5.34
CC(C)NC(=O)C1(Cc2ccccc2-c2cccs2)CCNC1 (stereo unspecified)	-3.31
CC(=O)N1CCC(Cc2cnc(-n3ccnc3)cn2)CC1	-6.47
CNc1cncc(C2CCCN2S(=O)(=O)c2cccc(F)c2)n1 (stereo unspecified)	-2.79
Cc1cccc2nc(C(=O)N3CCCC[C@]4(C)NC(=O)CCC[C@H]34)cn12	-5.3
Cc1ccc2nc(C(=O)N3CCCC[C@]4(C)NC(=O)CCC[C@H]34)cn2c1	-4.04
O=S(=O)(N1CCCC1)N1CC[C@H](c2ccccc2)[C@H]2NCCCC[C@H]21	-2.6
CCN(CC)S(=O)(=O)N1CC[C@H](c2ccccc2)[C@H]2NCCCC[C@H]21	-3.25
c1cn(-c2cncc(C3CCNCC3)n2)cn1	-6.9
COc1ccc(-c2ccnc(C3CCNCC3)c2)cc1	-5.12
Cc1ccc(CN(CCCN2CCOCC2)Cc2cnc(C)n2C)o1	12.4
